Publication PMC6342556 (ACS chemical neuroscience, 2018)

Molecular target: serotonin transporter (hSERT) (Homo sapiens, UniProt P31645)
Experiment: fluorometric uptake
Type: cell-based

Sequence of serotonin transporter (hSERT) (P31645 whole entry): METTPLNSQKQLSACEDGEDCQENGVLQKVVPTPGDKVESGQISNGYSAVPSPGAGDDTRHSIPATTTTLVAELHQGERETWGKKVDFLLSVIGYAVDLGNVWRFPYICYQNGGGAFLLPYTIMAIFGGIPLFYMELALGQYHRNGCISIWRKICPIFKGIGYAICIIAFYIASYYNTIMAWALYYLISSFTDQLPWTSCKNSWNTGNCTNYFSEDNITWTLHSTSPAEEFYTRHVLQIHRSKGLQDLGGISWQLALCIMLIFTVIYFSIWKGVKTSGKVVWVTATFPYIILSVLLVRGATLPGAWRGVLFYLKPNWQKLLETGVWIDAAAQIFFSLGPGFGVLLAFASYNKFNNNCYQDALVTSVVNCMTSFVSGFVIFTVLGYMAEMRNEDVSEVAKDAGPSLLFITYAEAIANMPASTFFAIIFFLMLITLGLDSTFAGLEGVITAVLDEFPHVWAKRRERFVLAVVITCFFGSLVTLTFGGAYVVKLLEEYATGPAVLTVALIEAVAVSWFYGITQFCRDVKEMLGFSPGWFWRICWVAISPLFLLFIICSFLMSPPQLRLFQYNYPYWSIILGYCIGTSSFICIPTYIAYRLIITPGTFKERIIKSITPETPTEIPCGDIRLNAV

## NCCc1ccc2[nH]c3ccccc3c(=O)c2c1 [FFN54]
  fluorometric uptake (5 μM) in hSERT-HEK cells with and without imipramine; S/B =: FFN54 showed hSERT-dependent cell uptake in a multi-well fluorometric assay using hSERT-transfected human kidney cells
